From ChEMBL document CHEMBL1142345, “Synthesis and biological evaluation of alpha- and beta-6-amido derivatives of 17-cyclopropylmethyl-3, 14beta-dihydroxy-4, 5alpha-epoxymorphinan: potential alcohol-cessation agents” (J Med Chem, 2008)
pKi: −log10 of the molar value. Calls of active or inactive are those of the source. The rule behind the calls is not given here.

Legend:
[1] = organism: Homo sapiens; assay: Selectivity ratio of Ki for human mu opioid receptor over Ki for human delta opioid receptor
[2] = target: T1, Mu-type opioid receptor (Homo sapiens, UniProt P35372); assay: Displacement of [3H]DAMGO from human mu opioid receptor expressed in CHO cells; type: cell-based
T1 sequence (P35372 whole entry): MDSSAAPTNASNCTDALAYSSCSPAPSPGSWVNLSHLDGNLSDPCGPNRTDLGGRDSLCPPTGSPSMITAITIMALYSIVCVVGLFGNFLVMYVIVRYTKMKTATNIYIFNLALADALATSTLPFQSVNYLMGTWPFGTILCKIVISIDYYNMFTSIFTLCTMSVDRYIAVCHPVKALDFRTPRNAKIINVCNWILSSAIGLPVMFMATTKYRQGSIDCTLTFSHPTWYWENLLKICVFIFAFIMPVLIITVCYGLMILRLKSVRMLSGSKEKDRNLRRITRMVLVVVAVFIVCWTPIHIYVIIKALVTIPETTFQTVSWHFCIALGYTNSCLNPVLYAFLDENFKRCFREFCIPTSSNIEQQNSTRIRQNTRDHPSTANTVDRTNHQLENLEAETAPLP

[3] = organism: Homo sapiens; assay: Selectivity ratio of Ki for human mu opioid receptor over Ki for human kappa opioid receptor
[4] = target: T2, Delta-type opioid receptor (Homo sapiens, UniProt P41143); assay: biochemical
T2 sequence (P41143 whole entry): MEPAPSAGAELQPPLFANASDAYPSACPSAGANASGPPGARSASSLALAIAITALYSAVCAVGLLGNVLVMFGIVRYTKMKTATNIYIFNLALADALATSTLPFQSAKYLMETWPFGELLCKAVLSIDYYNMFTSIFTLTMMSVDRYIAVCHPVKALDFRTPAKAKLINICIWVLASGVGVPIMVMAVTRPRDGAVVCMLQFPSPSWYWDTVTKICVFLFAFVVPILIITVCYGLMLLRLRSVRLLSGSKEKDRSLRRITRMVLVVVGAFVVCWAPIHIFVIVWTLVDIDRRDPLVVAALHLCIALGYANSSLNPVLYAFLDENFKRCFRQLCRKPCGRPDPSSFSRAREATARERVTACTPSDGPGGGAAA
Description: Displacement of [3H]DPDPE from human delta opioid receptor expressed in CHO cells

[5] = target: T3, Kappa-type opioid receptor (Homo sapiens, UniProt P41145); assay: Displacement of [3H]U69593 from human kappa opioid receptor expressed in CHO cells; type: cell-based
T3 sequence (P41145 whole entry): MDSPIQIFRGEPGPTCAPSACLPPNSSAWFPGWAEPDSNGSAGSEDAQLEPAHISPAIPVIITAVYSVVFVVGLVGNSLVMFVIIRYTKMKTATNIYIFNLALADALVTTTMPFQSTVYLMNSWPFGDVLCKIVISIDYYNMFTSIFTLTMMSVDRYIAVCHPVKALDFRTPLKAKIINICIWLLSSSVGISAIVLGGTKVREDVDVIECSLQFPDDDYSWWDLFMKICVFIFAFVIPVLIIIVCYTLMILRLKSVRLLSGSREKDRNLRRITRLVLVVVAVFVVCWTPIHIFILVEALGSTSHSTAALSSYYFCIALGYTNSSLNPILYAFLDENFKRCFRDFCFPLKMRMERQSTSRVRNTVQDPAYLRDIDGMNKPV

[6] = target: CYP2C19 (Homo sapiens, UniProt P33261); assay: Inhibition of CYP2C19 at 10 uM; type: ADME
CYP2C19, sequence (P33261 whole entry): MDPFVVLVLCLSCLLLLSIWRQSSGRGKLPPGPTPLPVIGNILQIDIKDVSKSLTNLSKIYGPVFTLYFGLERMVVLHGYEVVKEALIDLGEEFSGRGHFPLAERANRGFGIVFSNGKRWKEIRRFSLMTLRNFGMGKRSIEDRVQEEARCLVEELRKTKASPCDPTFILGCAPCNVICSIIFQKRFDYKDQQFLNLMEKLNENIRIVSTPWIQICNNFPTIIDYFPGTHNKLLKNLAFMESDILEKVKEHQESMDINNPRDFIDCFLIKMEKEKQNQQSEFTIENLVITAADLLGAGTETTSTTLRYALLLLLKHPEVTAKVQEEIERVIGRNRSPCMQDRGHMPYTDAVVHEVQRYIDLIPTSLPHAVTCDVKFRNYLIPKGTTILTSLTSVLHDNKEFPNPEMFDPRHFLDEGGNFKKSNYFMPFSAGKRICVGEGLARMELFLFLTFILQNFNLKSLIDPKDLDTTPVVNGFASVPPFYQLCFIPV

[7] = target: T1, Mu-type opioid receptor
Description: Activity at human mu opioid receptor by [35S]GTPgammaS binding assay

[8] = target: T2, Delta-type opioid receptor; assay: Agonist activity at human delta opioid receptorR by [35S]GTPgammaS binding assay; type: functional
[9] = target: CYP2C9 (Homo sapiens, UniProt P11712); assay: Inhibition of CYP2C9 at 10 uM; type: ADME
CYP2C9, sequence (P11712 whole entry): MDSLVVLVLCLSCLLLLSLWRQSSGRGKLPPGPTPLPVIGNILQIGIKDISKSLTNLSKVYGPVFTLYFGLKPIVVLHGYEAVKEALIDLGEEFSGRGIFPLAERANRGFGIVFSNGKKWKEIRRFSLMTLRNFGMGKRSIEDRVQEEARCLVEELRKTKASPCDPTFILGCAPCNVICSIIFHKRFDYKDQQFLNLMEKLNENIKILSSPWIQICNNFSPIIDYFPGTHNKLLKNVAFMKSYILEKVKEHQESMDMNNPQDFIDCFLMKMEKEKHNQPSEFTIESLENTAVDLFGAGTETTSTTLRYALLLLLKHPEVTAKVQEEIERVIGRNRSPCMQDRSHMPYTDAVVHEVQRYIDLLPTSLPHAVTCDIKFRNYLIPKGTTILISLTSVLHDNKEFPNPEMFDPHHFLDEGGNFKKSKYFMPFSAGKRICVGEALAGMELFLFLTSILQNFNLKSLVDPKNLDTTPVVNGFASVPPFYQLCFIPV

[10] = system: Rattus norvegicus; assay: Inhibition of self alcohol consumption in rat at 1.5 mg/kg using operant techniques; type: functional
[11] = target: CYP2D6 (Homo sapiens, UniProt P10635); assay: in vitro
CYP2D6, sequence (P10635 whole entry): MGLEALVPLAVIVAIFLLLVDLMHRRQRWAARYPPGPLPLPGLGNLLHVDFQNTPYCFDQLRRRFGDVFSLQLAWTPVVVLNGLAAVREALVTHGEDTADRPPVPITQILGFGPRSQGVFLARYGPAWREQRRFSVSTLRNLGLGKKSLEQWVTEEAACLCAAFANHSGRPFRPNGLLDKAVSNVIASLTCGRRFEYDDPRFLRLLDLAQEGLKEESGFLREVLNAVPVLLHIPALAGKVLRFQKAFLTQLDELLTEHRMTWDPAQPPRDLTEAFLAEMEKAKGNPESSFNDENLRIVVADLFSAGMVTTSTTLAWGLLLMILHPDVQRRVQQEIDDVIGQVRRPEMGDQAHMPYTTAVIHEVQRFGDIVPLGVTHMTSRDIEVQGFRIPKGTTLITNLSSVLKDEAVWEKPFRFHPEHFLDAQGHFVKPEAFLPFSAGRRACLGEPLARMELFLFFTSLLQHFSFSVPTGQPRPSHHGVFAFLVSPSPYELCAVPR
Description: Inhibition of CYP2D6 at 10 uM

[12] = target: CYP3A4 (Homo sapiens, UniProt P08684); assay: Inhibition of CYP3A4 at 10 uM; type: ADME
CYP3A4, sequence (P08684 whole entry): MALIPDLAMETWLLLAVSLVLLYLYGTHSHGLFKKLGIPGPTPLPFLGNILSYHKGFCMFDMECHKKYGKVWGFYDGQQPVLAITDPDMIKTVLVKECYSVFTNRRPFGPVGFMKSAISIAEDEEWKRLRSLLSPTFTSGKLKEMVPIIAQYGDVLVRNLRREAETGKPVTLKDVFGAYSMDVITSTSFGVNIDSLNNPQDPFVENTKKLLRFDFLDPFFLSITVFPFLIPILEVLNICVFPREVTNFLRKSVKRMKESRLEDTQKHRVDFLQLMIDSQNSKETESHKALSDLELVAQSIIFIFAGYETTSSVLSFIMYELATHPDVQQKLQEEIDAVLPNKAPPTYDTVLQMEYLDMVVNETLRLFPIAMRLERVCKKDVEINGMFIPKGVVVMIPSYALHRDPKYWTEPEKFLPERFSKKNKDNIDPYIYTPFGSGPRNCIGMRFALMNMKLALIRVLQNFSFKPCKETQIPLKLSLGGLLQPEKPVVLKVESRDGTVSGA

[13] = target: T3, Kappa-type opioid receptor; assay: Agonist activity at human kappa opioid receptorR by [35S]GTPgammaS binding assay; type: functional
[14] = organism: Rattus norvegicus; assay: Inhibition of self alcohol consumption in rat using operant techniques; type: functional
[15] = target: T4, CYP2B6 (Homo sapiens, UniProt P20813); assay: Inhibition of CYP2B6 at 10 uM; type: ADME
T4 sequence (P20813 whole entry): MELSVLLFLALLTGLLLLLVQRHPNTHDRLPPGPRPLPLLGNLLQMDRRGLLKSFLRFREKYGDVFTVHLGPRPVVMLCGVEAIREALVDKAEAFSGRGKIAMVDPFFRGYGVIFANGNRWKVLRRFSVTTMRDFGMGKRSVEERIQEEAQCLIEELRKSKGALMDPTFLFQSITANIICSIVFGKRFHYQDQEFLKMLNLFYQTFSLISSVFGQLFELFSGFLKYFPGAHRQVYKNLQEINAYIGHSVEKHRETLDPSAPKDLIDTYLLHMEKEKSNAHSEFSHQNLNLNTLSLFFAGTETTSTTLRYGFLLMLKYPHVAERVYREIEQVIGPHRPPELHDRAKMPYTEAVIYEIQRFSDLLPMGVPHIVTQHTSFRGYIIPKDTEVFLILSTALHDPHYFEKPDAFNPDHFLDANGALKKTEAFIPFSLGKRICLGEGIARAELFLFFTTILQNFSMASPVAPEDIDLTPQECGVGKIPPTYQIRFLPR

[16] = Metabolic stability assessed as half life in mouse liver microsomes at 40 uM; type: ADME, Microsome
[17] = system: Rattus norvegicus; assay: Inhibition of self alcohol consumption in rat at 2 mg/kg using operant techniques; type: functional
[18] = Metabolic stability assessed as half life in human liver S9 fraction at 40 uM; type: ADME, subcellular

In the case of `COc1cc(OC)cc(C(=O)N[C@@H]2CC[C@@]3(O)[C@H]4Cc5ccc(O)c6c5[C@@]3(CCN4CC3CC3)[C@H]2O6)c1`, the Ratio Ki [1] was 68, the pKi [2] was 9.59 and the Ratio Ki [3] was 1.1. It also gave a pKi [4] of 7.75 and a pKi [5] of 9.54.

With `O=C(C[C@@H]1O[C@H](CO)[C@@H](O)[C@H](O)[C@H]1O)N[C@H]1CC[C@@]2(O)[C@H]3Cc4ccc(O)c5c4[C@@]2(CCN3CC2CC2)[C@H]1O5` the Ratio Ki [1] was 55, the pKi [2] was 9.17 and the Ratio Ki [3] was 3. It also gave a pKi [4] of 7.43 and a pKi [5] of 8.69.

For `CN(C)c1cccc(C(=O)NC2CC[C@@]3(O)[C@H]4Cc5ccc(O)c6c5[C@@]3(CCN4CC3CC3)[C@H]2O6)c1` (some centres not stated), the inhibition at 10 µM [6] was 70%, the Ratio Ki [1] was 7.08 and the Ke [7] was 0.14 nM. For the same molecule, the Activity [8] was “Active”, the inhibition at 10 µM [9] was 23.1% and the pKi [2] was 8.92. For the same molecule, the inhibition in vivo at 1.5 mg/kg [10] was 17%, the inhibition at 10 µM [11] was 23.5% and the Ratio Ki [3] was 1.42. For the same molecule, the pKi [4] was 8.07, the inhibition at 10 µM [12] was 39.9% and the Activity [13] was “Active”. It also gave a pKi [5] of 8.77.

In the case of `O=C(Cc1cccs1)N[C@@H]1CC[C@@]2(O)[C@H]3Cc4ccc(O)c5c4[C@@]2(CCN3CC2CC2)[C@H]1O5`, the Ratio Ki [1] was 75, the Ke [7] was 0.41 nM and the pKi [2] was 9.37. It also gave a Ratio Ki [3] of 2.8, a pKi [4] of 7.49 and a pKi [5] of 8.92.

For `O=C(N[C@@H]1CC[C@@]2(O)[C@H]3Cc4ccc(O)c5c4[C@@]2(CCN3CC2CC2)[C@H]1O5)c1ccc(Cl)cc1`, the inhibition at 10 µM [6] was 39.1%, the ED50 [14] was 0.5 mg/kg and the inhibition at 10 µM [9] was 28.1%. The inhibition at 10 µM [11] was 4.7%, the inhibition at 10 µM [12] was 30.8% and the inhibition at 10 µM [15] was 7%. The half-life at 40 µM [16] was 255 min.

Work on `O=C(CCc1ccccc1)N[C@@H]1CC[C@@]2(O)[C@H]3Cc4ccc(O)c5c4[C@@]2(CCN3CC2CC2)[C@H]1O5` yielded a Ratio Ki [1] of 100, a Ke [7] of 0.15 nM and a pKi [2] of 9.92. It also gave a Ratio Ki [3] of 0.8, a pKi [4] of 7.91 and a pKi [5] of 10.05.

`Nc1ccc(C(=O)N[C@@H]2CC[C@@]3(O)[C@H]4Cc5ccc(O)c6c5[C@@]3(CCN4CC3CC3)[C@H]2O6)cc1` gave a Ratio Ki [1] of 85, a pKi [2] of 9.37 and a Ratio Ki [3] of 0.93. It also gave a pKi [4] of 7.44 and a pKi [5] of 9.40.

With `COc1cccc(C(=O)N[C@@H]2CC[C@@]3(O)[C@H]4Cc5ccc(O)c6c5[C@@]3(CCN4CC3CC3)[C@H]2O6)c1` the inhibition at 10 µM [6] was 47.1%, the Ratio Ki [1] was 32 and the Ke [7] was 0.17 nM. For the same molecule, the Activity [8] was “Active”, the pKi [2] was 9.92 and the inhibition at 10 µM [11] was 31.2%. For the same molecule, the Ratio Ki [3] was 2, the pKi [4] was 8.42 and the inhibition at 10 µM [12] was 44.9%. For the same molecule, the Activity [13] was “Active”, the inhibition in vivo at 2 mg/kg [17] was 75% and the inhibition at 10 µM [15] was 49.3%. The pKi [5] was 9.62.

For `O=C(N[C@@H]1CC[C@@]2(O)[C@H]3Cc4ccc(O)c5c4[C@@]2(CCN3CC2CC2)[C@H]1O5)c1cccc(O)c1`, the Ratio Ki [1] was 21, the pKi [2] was 9.89 and the Ratio Ki [3] was 0.5. It also gave a pKi [4] of 8.56 and a pKi [5] of 10.22.

`O=C(C[C@@H]1O[C@H](CO)[C@@H](O)[C@H](O)[C@H]1O)N[C@@H]1CC[C@@]2(O)[C@H]3Cc4ccc(O)c5c4[C@@]2(CCN3CC2CC2)[C@H]1O5` showed a Ratio Ki [1] of 150, a Ke [7] of 0.37 nM and a pKi [2] of 9.19. It also gave a Ratio Ki [3] of 7, a pKi [4] of 7.00 and a pKi [5] of 8.35.

For `O=C(N[C@@H]1CC[C@@]2(O)[C@H]3Cc4ccc(O)c5c4[C@@]2(CCN3CC2CC2)[C@H]1O5)c1ccccc1`, the pKi [2] was 9.74 and the pKi [5] was 9.80.

Work on `O=C(/C=C/Cc1ccccc1)N[C@@H]1CC[C@@]2(O)[C@H]3Cc4ccc(O)c5c4[C@@]2(CCN3CC2CC2)[C@H]1O5` yielded a Ratio Ki [1] of 100, a pKi [2] of 10.22 and a Ratio Ki [3] of 20. The pKi [4] was 8.09 and the pKi [5] was 9.04.

For `C=C1CC[C@@]2(O)[C@H]3Cc4ccc(O)c5c4[C@@]2(CCN3CC2CC2)[C@H]1O5`, the ED50 [14] was 0.04 mg/kg, the inhibition at 10 µM [9] was 35.5% and the half-life at 40 µM [18] was 20 min. For the same molecule, the half-life at 40 µM [16] was 20 min.
